Data: US20180072675A1, “ANTIMICROBIAL PYRIDINOHYDRAZIDE AND HYDRAZOMETHYLPYRIDINE-BASED AGENTS” (Board of Supervisors of Louisiana State University and …, priority 2015, published 2018)
Converted amounts (≈) assume the structure as drawn. “Also recorded” adds a separate entry of the source.

Legend:
[1] = system: C. albicans clinical isolate 1 (TW1); assay: MIC80 fungal growth inhibition, clinical isolate TW1; format: cell-based, Candida albicans; settings: Azole-susceptible, >80% growth inhibition, visual scoring; for MIC80: Candida albicans, read-out: MIC80 TW1
Description: (§1) The antifungal activity of the pyridinohydrazide and hydrazomethylpyridine derivatives described in the s were evaluated in vitro using Candida albicans (ATCC Accession No. 10231) and Candida glabrata (ATCC Accession No. 48435). In addition, the compounds were evaluated for activity against two previously-described clinical isolates of C. albicans known to have developed azole-resistance. These isolates were obtained over a two year period from a single AIDS patient and the development of the azole-resistance mechanisms have been extensively characterized (White T C. Antimicrob. Agents Chemother. (1997) 41: 1482-1487). MIC assays were performed on the clinical isolates 1 and 17 (annotated TW1 and TW17, respectively), where isolate 1 was used as an azole-susceptible control and isolate 17 was considered azole-resistant. All assays were done in accordance with NCCLS reference documents (Clinical Laboratory and Standards Institute. Reference method for Broth Dilution Antifungal Susceptibility Testing of Yeasts: Approved Standard. M27-A3 2010; 28). The results of these screenings are summarized in Tables 1-9 (Examples 20-27) as the minimum concentrations that inhibited more than 80% of fungal growth (MIC80) as compared to positive controls containing 1% DMSO. Assays were performed in HEPES-buffered RPMI-1640 media. All MIC screens used a visual scoring method as opposed to spectroscopic analysis, due to the altered absorbance spectra of many of the compounds.

[2] = system: C. albicans clinical isolate 17 (TW17); assay: MIC80 fungal growth inhibition, clinical isolate TW17; format: cell-based, Candida albicans; settings: for MIC80: Candida albicans, read-out: MIC80 TW17; for MIC80 / MIC80 TW17: Azole-resistant, >80% growth inhibition, visual scoring
Description: as §1

Candida strain TW17 = assay: Time-kill assay; format: cell-based, Candida albicans; settings: four times the MIC for TW17, 48 h
Description: FIG. 9 illustrates time-kill assays, for representative analogs that were active against the azole-resistant TW17, to determine the cidal or static nature of the analog tested. 100 μl of each sample was spread onto YM agar plates with a sterile bent spreading rod. Plates were incubated at 35° C. overnight and colonies were then counted on each plate.
One of the objectives of this study was to determine the cidal or static nature of the analogs that were active against such as TW17, the azole-resistant clinical isolate. Azoles affect Candida spp. by inhibiting ergosterol biosynthesis, and ultimately prevent their reproduction. This effect has led to the classification of azoles as fungistats. Determining the fungistatic or fungicidal nature of the synthesized compounds of the present disclosure allows a comparison to azoles, in addition to improving the understanding of how the structural motifs might lend toward an alternate mechanism of action. Therefore, time-kill assays were performed using the representative analogs that were active against the azole-resistant TW17 at concentrations at or below 8 μg/mL.
Solid drugs were dissolved in DMSO to a concentration of 10 mg/ml. This stock solution was then further diluted in water to the desired experimental concentration, determined to be four times that of the MIC for the Candida strain TW17 (as reported in the Tables).
Individual colonies of TW17 were suspended in 5 ml of sterile water and adjusted to achieve a McFarland reading between 0.08 and 0.12. The inoculum was then further diluted in sterile water at a ratio of 1:100. Three […] tissue culture tubes were prepared by combining 2.5 ml of above diluted inoculum, 21.7 ml of HEPES buffered RPMI-1640 media, and 800 μl of experimental drug dilution. A “Growth Control” tube was prepared by combining 2.5 ml of inoculum, 21.7 HEPES buffered RPMI-1640 media, and 800 μl of water-DMSO solution equal to the DMSO concentration of the experimental drug dilution. A “Sterile Control” tube was prepared by combining 24.2 ml of HEPES-buffered RPMI-1640 media and 800 μl of water-DMSO solution as in the “Growth Control”. All tubes were incubated for 48 hours at 35° C., 50 rpm. 500 μl samples were taken from the tubes at time points of predetermined intervals during this incubation.
Time points for the “Kill-Curve” and “Growth Control” tubes were taken at 0, 1, 2, 4, 6, 8, 24, and 48 h after the start of incubation. Time points for “Sterile Control” were taken at 0 and 48 hours. Each time point sample was serially diluted 1:10 in sterile 0.9% NaCl solution up to 5 times. 100 μl of each sample was spread onto YM agar plates with a sterile bent spreading rod. Plates were incubated at 35° C. overnight and colonies were then counted on each plate. Colonies on plates from diluted time points were used to estimate uncountable undiluted samples. The number of colonies in undiluted samples was estimated to be 10^n times greater than the diluted sample, where n was the number of dilutions made.

[3] = system: Candida glabrata (ATCC Accession No. 48435); assay: MIC80 fungal growth inhibition, C. glabrata ATCC 48435; format: cell-based; settings: Azole-resistant, >80% growth inhibition, visual scoring; for MIC80: Nakaseomyces glabratus, ATCC48435, read-out: MIC80 C. glabrata ATCC No. 48435
Description: as §1

[4] = system: Candida albicans ATCC Accession No. 10231; assay: Checkerboard synergy assay with fluconazole; format: cell-based; settings: for FIC Fluc: average FIC of fluconazole at varying concentrations of the test drug; for FIC Test: average FIC of the test drug at varying concentrations of fluconazole; for Activity (interaction with fluconazole): from FIC index; for FIC Index: sum of the two FICs, <1 synergistic, >=1 antagonistic
Description: Considering that two different modes of activity (cidal and static) were observed depending on the structural motifs present in our analogs, we performed a series of checkerboard assays to determine if representative active compounds were in fact acting in synergy with the azole, fluconazole. Each of these assays tested multiple concentrations of the selected analog in the presence of multiple concentrations of fluconazole. All checkerboard assays were prepared in 96-well plates. 200 μl of previously prepared drug solutions were added to each well in column 2. Using a multichannel pipette, 100 μl from each well in column 2 was serially diluted (1:2) horizontally across the plate, stopping at column 10. Contents of each well were mixed thoroughly. Column 11 was reserved for fluconazole MIC control and contained no other drug. 100 μl of media was added to each well, column 2-10. Each well was mixed thoroughly with a multichannel pipette. 100 μl was then removed and discarded from these wells. 100 μl of previously prepared fluconazole dilution was added to each well in row B. Using a multichannel pipette, 100 μl from each well was serially diluted (1:2) vertically down the plate, stopping at row F. Contents of each well were mixed thoroughly. Row G was reserved for tested drug MIC control and contained no fluconazole. Well G11 contained neither drug and served as a drug-free growth control. The final 100 μl from each well in row F was discarded.
The fungal samples were prepared from glycerol stocks of Candida albicans ATCC Accession No. 10231. The inoculum's concentration was adjusted to a McFarland standard between 0.08 and 0.12. Inoculum was then diluted at a ratio of 1:37.5 in buffered media. 100 μl of inoculum-media solution was added to each well. Following inoculation, the 96-well plates were wrapped in parafilm to prevent evaporation and incubated for overnight at 35° C. After 18 h, the wells showing growth were recorded.
Synergistic activity was determined based on the MIC read from these plates. The fractional inhibitory concentration (FIC) for a given well is the ratio of the minimum inhibitory concentration of one drug A in the presence another drug B to the minimum inhibitory concentration with only drug A. The FIC was calculated for the test drug in each of the wells along the growth/no-growth interface at varying concentrations of fluconazole, then these values were averaged to determine the average FIC for the test drug. The same process was used to calculate the average FIC for fluconazole at varying concentrations of the test drug. The sum of these two FICs gives the FIC index which can be used to determine the synergistic effect between the two drugs (Hsieh et al., Diagn. Microbiol. Infect. Dis. (1993) 16: 343-349). An FIC index value less than 1 indicated synergistic interactions between the two drugs while an FIC index value greater than or equal to 1 indicated antagonistic interactions.

[5] = system: Candida albicans (ATCC Accession No. 10231); assay: MIC80 fungal growth inhibition, C. albicans ATCC 10231; format: cell-based; settings: Azole-susceptible, >80% growth inhibition, visual scoring; for MIC80: Candida albicans, ATCC10231, read-out: MIC80 C. albicans ATCC No. 10231
Description: as §1

Candida spp. = assay: MIC studies, statements pooled over several isolates; format: cell-based, Candida albicans, Candida glabrata; settings: for antifungal activity (in words): overall over the isolates tested
Description: as §1

protozoal proliferation = assay: Protozoal proliferation; format: cell-based; settings: FIG. 27
Hep G2 (liver) cells = assay: Mammalian cell toxicity, Promega CellTiter 96, liver cells; format: cell-based; settings: through 10× MIC, 24 h
Description: (§2) Cytotoxicity was determined using non-cancerous Vero cells (kidney-african green monkey) and liver cells (Hep-2G) in accordance with Promega CellTiter 96 Non-Radioactive Cell Proliferation Assay (cat # G4000). Compounds were diluted in media and all assays were done in triplicate. Average values are presented, with ±SD. Cells were incubated in the presence of the compounds for 24 h at 37° C. and 5% CO2. Tetrazolium dye solution was added to each well and allowed to incubate for 1-4 h. Solubilization/Stop solution was added and allowed to sit at room temperature for 1 h. Formazan product was scored spectrophotometrically with an automatic plate reader set at 570 nm. Positive control wells for cell death were briefly treated with 0.1% saponin, immediately prior to the addition of dye solution. Wells containing 1% DMSO and no drug were used as a negative control and the average absorbance at 570 nm were set to 100%. The percent of cells viable were calculated as a ratio between the average absorption at 570 nm of the drug containing wells/average absorption at 570 nm of the control (no drug). Ratios were multiplied by 100 to give the values as a percentage as expressed on the y-axis.
(§3) Cytotoxicity studies were performed in accordance with Promega CellTiter 96 Non-RadioactivCell Proliferation Assay (cat #G4000). All cytotoxicity studies used a negative control (wells of either kidney or liver cells containing 1% DMSO but lacking the analog), a positive control (wells of either kidney or liver cells treated with the known cytotoxic agent, saponin) and the serial dilutions of the novel analogs. All control (negative) wells were normalized to 100% viable cells to accurately show the percentage of either liver or kidney cells that remained alive and viable following either overnight incubation with the analogs or 5-minute treatment with 0.1% saponin.

Vero (kidney) cells = assay: Mammalian cell toxicity, Promega CellTiter 96, kidney cells; format: cell-based; settings: through 10× MIC, 24 h
Description: as §2, §3

Structure (SMILES)	MIC80 TW1 [1] [µg/mL]	MIC80 TW17 [2] [µg/mL]	MIC80 C. glabrata ATCC No. 48435 [3] [µg/mL]	MIC80 C. albicans ATCC No. 10231 [5] [µg/mL]	MIC80 [1] [µg/mL]	MIC80 [2] [µg/mL]	Cidal vs Static (Candida strain TW17)	MIC80 [3] [µg/mL]	FIC Fluc [4]	FIC Test [4]	Activity (interaction with fluconazole) [4]	FIC Index [4]	MIC80 [5] [µg/mL]	effect on protozoal proliferation (protozoal proliferation)	also measured
O=C(N/N=C/c1cc([N+](=O)[O-])ccc1O)c1ccccn1 [AR6, (E)-N′-(2-hydroxy-5-nitrobenzylidene)picolinohydrazide]	–	–	–	–	8 (≈ 27.9 µM)	8 (≈ 27.9 µM)	Static	8 (≈ 27.9 µM)	1.00	1.00	Antagonistic	2.00	4 (≈ 14 µM)	–	–
O=C(N/N=C/c1cc(Cl)ccc1O)c1ccccn1 [AR4, (E)-N′-(5-Chloro-2-hydroxybenzylidene)picolinohydrazide]	–	–	–	–	4 (≈ 14.5 µM)	8 (≈ 29 µM)	–	1 (≈ 3.63 µM)	–	–	–	–	1 (≈ 3.63 µM)	reduce protozoal proliferation	–
O=C(N/N=C/c1cc([N+](=O)[O-])ccc1O)c1ccncc1 [SA113]	–	–	–	–	–	–	–	–	–	–	–	–	–	reduce protozoal proliferation	–
O=C(N/N=C/c1cc(Br)ccc1O)c1ccccn1 [AR5, (E)-N′-(5-bromo-2-hydroxybenzylidene)picolinohydrazide]	–	–	–	–	2 (≈ 6.25 µM)	4 (≈ 12.5 µM)	fungicidal; also recorded: Cidal	4 (≈ 12.5 µM)	1.00	0.90	Antagonistic	1.90	1 (≈ 3.12 µM)	reduce protozoal proliferation	–
O=C(N/N=C/c1ccccc1O)c1cccnc1O [AR19]	–	–	–	–	4 (≈ 15.5 µM)	4 (≈ 15.5 µM)	–	1 (≈ 3.89 µM)	–	–	–	–	–	–	cell toxicity (Hep G2 (liver) cells): minimal toxicity; cell toxicity (Vero (kidney) cells): minimal toxicity; growth inhibition (in words) (Candida spp.; across all Candida albicans isolates): growth inhibition was observed at very low concentrations

Now from value to molecule, other results behind:

MIC80 TW1 [1] [µg/mL]	MIC80 TW17 [2] [µg/mL]	MIC80 C. glabrata ATCC No. 48435 [3] [µg/mL]	MIC80 C. albicans ATCC No. 10231 [5] [µg/mL]	Structure (SMILES)	MIC80 [1] [µg/mL]	MIC80 [2] [µg/mL]	Cidal vs Static (Candida strain TW17)	MIC80 [3] [µg/mL]	FIC Fluc [4]	FIC Test [4]	Activity (interaction with fluconazole) [4]	FIC Index [4]	MIC80 [5] [µg/mL]	effect on protozoal proliferation (protozoal proliferation)	also measured
16 (≈ 70.7 µM)	16 (≈ 70.7 µM)	16 (≈ 70.7 µM)	31 (≈ 137 µM)	O=C(NN=Cc1ccccn1)c1ccccn1 [AR34]	–	–	–	–	–	–	–	–	–	–	antifungal activity (in words) (Candida spp.): moderate activity
16 (≈ 62.7 µM)	–	8 (≈ 31.3 µM)	4 (≈ 15.7 µM)	Cc1ccc(O)c(/C=N/NC(=O)c2cccnc2)c1 [AR8]	–	–	–	–	–	–	–	–	–	–	activity against azole-resistant isolates (in words) (Candida spp.; azole-resistant isolates): less active
16 (≈ 81.1 µM)	16 (≈ 81.1 µM)	31 (≈ 157 µM)	16 (≈ 81.1 µM)	C(=NNc1ccccc1)c1ccccn1 [AR29]	–	–	–	–	–	–	–	–	–	–	antifungal activity (in words) (Candida spp.): moderate activity
4 (≈ 13.2 µM)	2 (≈ 6.62 µM)	4 (≈ 13.2 µM)	8 (≈ 26.5 µM)	O=C(N/N=C/c1cc([N+](=O)[O-])ccc1O)c1ccc[n+]([O-])c1 [AR28]	–	–	Static	–	1.00	1.00	Antagonistic	2.00	–	–	activity against azole-resistant TW17 [2]: 2 µM
